From patent publication US20040147562A1, “Methods of treating conditions associated with an EDG-1 receptor” (priority 2002, published 2004) come the findings set out here.

Bounds are passed on as bounds.

The test system of one assay is human Edg-1 receptors. Kind of assay: Intracellular calcium (FLIPR) assay, HTC cells expressing Edg-1. In kind it is cell-based. Conditions: Edg-1 relative to other Edg receptors. The protocol:
The compounds were tested in HTC cells expressing human Edg-1 receptors. […] The compounds were tested in this recombinant system first, and subsequently tested in cell lines expressing Edg-1 (in addition to other Edg receptors).
[…] receptors such as Edg-1, couple to calcium effector pathways, and result in increases in intracellular calcium following receptor activation (An, 1998, J. Cell Biochem. Supp 30-31:147-157). This biological response lends itself to a very efficient, high-throughput screen using a Fluorescence Imaging Plate Reader (FLIPR; Molecular Devices, Sunnyvale, Calif.). The FLIPR system is a real-time, cell-based assay system with continuous fluorescence detection using a cooled CCD camera. The FLIPR system was used to develop an Edg-1 receptor screen. Rat hepatoma cells stably expressing Edg-1/3i3 chimera or Edg-1 and Gqi were plated on 384-well plates and loaded with a calcium dye loading kit (Molecular Devices, Sunnyvale, Calif.) for 1 hour at room temperature. Cells were then placed on the FLIPR^384 (Molecular Devices, Sunnyvale, Calif.) and excited by an argon laser at 488 nm. The data for the entire 384-well plate was updated every second. An integrated robotic pipettor allowed for simultaneous compound addition into each individual well in the plate.
A general note: Calcium flux is commonly read through the fluorescence of an indicator in the cells.

In a further assay the target is T1, Edg-2 (Homo sapiens, UniProt Q92633).
T1 construct: expressed in transfected cells; host or cells: HTC rat hepatoma cells
In words: Intracellular calcium (FLIPR) assay, HTC cells expressing Edg-2. The class given is cell-based.

In another assay the target is T2, Edg-3 (Homo sapiens, UniProt Q99500).
T2 construct: expressed in transfected cells; host or cells: HTC rat hepatoma cells
Kind of assay: Intracellular calcium (FLIPR) assay, HTC cells expressing Edg-3. The class given is cell-based.

Another assay has as its target Edg-4 (Homo sapiens, UniProt Q9HBW0). In words: Intracellular calcium (FLIPR) assay, HTC cells expressing Edg-4. The class given is cell-based.
A further assay addresses T3, Edg-5 (Homo sapiens, UniProt O95136).
T3 construct: expressed in transfected cells; host or cells: HTC rat hepatoma cells
Kind of assay: Intracellular calcium (FLIPR) assay, HTC cells expressing Edg-5. In kind it is cell-based.

The target of another assay is T4, Edg-6 (Homo sapiens, UniProt O95977).
T4 construct: expressed in transfected cells; host or cells: HTC rat hepatoma cells
T4 sequence (O95977 1-384): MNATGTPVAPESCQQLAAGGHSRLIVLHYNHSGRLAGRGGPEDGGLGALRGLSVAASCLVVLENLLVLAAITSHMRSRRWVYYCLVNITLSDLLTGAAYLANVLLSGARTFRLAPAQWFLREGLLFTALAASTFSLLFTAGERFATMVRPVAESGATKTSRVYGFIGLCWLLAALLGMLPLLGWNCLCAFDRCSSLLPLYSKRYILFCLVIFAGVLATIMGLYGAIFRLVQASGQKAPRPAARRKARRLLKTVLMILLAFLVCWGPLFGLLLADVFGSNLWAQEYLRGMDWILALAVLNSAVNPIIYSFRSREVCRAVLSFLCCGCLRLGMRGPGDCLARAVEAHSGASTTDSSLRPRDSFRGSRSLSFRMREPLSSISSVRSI
Kind of assay: Intracellular calcium (FLIPR) assay, HTC cells expressing Edg-6. The class given is cell-based.

A further assay deals with T5, Edg-7 (Homo sapiens, UniProt Q9UBY5).
T5 construct: expressed in transfected cells; host or cells: HTC rat hepatoma cells
T5 sequence (Q9UBY5 1-353): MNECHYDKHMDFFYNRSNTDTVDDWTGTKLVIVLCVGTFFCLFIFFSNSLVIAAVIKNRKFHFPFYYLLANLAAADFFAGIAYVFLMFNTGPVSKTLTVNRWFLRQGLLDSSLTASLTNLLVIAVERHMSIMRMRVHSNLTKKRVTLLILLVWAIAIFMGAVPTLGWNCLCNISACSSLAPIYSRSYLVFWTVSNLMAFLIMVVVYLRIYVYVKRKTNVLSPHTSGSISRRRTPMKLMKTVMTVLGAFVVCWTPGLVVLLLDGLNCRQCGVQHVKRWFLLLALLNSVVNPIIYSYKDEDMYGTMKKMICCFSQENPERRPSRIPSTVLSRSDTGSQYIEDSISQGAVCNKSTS
Kind of assay: Intracellular calcium (FLIPR) assay, HTC cells expressing Edg-7. In kind it is cell-based.

For another assay, the target named is T6, Edg-8 (Homo sapiens, UniProt Q9H228).
T6 construct: expressed in transfected cells; host or cells: HTC rat hepatoma cells
Kind of assay: Intracellular calcium (FLIPR) assay, HTC cells expressing Edg-8. The class given is cell-based.

Another assay relates to murine CD4 T cells. Kind of assay: Murine CD4 T cell chemotactic response to exodus-2. In kind it is cell-based. On the procedure: To assess this modulation and to test the effects of Edg-1 agonists and antagonists on this effect, murine CD4 T cells chemotactic responses to exodus-2 were tested in the presence of S1P and the Edg-1 agonist 104. These experiments were performed according to the migration and invasion assay protocols described in Section 7.12, below.
The effects of Edg-1 antagonists on S1P regulation of the chemotactic response to exodus-2 were also assessed. This experiment was performed according to the migration and invasion assay protocols described in Section 7.12, below. […] Thus, these Edg-1 antagonists can antagonize both aspects of the regulation by S1P of exodus-2-mediated chemotaxis.
Cells were plated in a 24 well format using Fluoroblok filter insert plates ([…] pore size) or Fluoroblok matrigel coated filter insert plates (Becton Dickinson, San Diego, Calif.). The assay was a modified Boyden Chamber assay in which a cell suspension (1×10^5 cells/ml) was prepared in serum free medium and added to the top chamber. LPA or S1P (doses ranged from 0.1-10 μM in serum free medium) was added to the bottom chamber. Following a 20-24 hour incubation period, the number of cells migrating or invading into the lower chamber was quantitated by transferring the filter insert into a fresh 24-well plate containing 4 μg/ml calcein AM (Molecular Probes, Sunnyvale, Calif.) in Hank's Balanced Salt Solution and staining for one hour.
Detection was via fluorescent readout at 450 nm excitation/530 nm emission using a fluorimeter. The level of fluorescence correlated with cell number.

Assay [1] deals with mouse splenic CD4 T cells. Kind of assay: Lymphocyte migration in mouse dorsal air-pouch model. In kind it is in vivo. Conditions: lavage after 24 hours, FIG. 15. The protocol: To test migration of mouse T cells in vivo, the ability of exodus-2 to attract mouse lymphocytes was assessed in the mouse dorsal air-pouch model. In these experiments, 0.5 ml 1 μM exodus-2 was introduced into a dorsal air-pouch produced by injecting 5 ml of filtered air subcutaneously. Mouse splenic CD4 T cells were fluorescently labeled with FM-DiI (Molecular Probes, Inc., Eugene, Oreg.), then treated with S1P (1 μM), 102, or 104. The treated CD4T cells were introduced into the peritoneal cavity. After 24 hours, lavage (1 ml) from the dorsal air pouch was assayed for fluorescence.

Where [2] appears, read: concentrations as high as 20 μM.
The mark [3] stands for this setting: agonist, concentrations as high as 25 μM.

For orientation: IC50 means the concentration needed to halve the response being measured. By EC50 is commonly meant the concentration at which the effect is half-maximal.

T2 sequence (Q99500 whole entry): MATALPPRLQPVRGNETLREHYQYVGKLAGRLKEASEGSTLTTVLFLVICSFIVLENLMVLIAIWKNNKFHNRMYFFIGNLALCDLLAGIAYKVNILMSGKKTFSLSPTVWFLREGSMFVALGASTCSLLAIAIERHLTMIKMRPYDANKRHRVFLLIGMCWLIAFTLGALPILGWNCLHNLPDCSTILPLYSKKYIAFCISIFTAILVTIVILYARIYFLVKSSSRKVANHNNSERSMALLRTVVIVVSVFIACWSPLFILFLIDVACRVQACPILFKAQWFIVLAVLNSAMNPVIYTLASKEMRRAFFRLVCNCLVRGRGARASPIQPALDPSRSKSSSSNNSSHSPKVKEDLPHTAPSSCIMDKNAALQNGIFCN
Chain of Edg-4 (Q9HBW0 1-340 limits assumed): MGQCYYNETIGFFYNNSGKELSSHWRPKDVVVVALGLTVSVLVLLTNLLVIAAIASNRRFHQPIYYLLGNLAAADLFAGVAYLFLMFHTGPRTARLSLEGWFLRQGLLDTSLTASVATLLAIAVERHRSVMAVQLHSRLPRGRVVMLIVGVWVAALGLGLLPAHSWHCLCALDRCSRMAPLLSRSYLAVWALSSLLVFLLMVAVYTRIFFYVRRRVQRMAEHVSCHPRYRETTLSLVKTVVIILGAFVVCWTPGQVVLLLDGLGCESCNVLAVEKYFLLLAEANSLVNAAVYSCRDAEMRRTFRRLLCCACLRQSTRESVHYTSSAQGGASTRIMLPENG
T3 sequence (O95136 whole entry): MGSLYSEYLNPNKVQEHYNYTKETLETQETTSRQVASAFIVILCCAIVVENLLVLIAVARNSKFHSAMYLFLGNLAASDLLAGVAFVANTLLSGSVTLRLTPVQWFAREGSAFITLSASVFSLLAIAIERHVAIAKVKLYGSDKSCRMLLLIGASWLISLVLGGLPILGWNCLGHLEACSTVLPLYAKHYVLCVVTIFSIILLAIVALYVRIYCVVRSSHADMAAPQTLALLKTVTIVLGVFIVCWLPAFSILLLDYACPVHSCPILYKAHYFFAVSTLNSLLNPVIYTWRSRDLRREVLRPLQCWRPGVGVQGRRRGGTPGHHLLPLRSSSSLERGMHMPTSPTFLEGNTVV
T6 sequence (Q9H228 whole entry): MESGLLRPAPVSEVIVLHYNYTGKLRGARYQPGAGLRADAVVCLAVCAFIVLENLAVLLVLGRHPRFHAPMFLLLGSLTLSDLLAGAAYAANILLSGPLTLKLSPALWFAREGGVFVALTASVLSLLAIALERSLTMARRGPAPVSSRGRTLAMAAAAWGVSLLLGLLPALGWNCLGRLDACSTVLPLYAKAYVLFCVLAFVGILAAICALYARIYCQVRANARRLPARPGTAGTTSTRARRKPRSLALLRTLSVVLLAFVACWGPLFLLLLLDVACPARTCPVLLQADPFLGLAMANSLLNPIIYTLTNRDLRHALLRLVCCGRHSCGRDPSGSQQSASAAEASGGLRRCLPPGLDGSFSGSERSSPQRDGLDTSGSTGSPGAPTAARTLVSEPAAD
T1 sequence (Q92633 whole entry): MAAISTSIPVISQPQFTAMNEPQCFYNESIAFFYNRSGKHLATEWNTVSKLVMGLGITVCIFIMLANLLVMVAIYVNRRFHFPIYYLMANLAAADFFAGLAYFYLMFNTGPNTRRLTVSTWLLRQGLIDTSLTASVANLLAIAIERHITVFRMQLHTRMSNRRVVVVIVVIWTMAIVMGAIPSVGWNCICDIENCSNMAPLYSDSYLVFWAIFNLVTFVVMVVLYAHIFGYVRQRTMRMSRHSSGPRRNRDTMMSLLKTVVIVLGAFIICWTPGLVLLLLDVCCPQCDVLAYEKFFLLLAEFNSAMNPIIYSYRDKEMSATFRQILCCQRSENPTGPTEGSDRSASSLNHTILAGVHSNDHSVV

For `O=C(c1cccnc1)N1N=C(c2ccc(Br)cc2)CC1(O)C(F)(F)F` (stereo not drawn) [Compound 102], the “Fold Selectivity” value in the assay on human Edg-1 receptors (inhibition (Table 2)) is more than 11.8 Fold. The half-inhibitory concentration (IC50) on Edg-2 (Table 2, LPA-stimulated) is more than 20 µM; at Edg-3 (Table 2, S1P-stimulated) it was more than 20 µM; at Edg-4 (Table 2, LPA-stimulated), more than 20 µM; at Edg-5 (Table 2, S1P-stimulated) it was more than 20 µM; at Edg-6 (Table 2, S1P-stimulated) it was more than 20 µM; on Edg-7 (Table 2, LPA-stimulated) it was more than 20 µM. In addition, the IC50 at Edg-8 (Table 2, S1P-stimulated) was more than 20 µM. The “inhibition of LPA-stimulated calcium increases in HTC cells expressing Edg-2” value at Edg-2 (setting [2]) is reported as “did not inhibit”. At Edg-3 (setting [2]), the “inhibition of S1P-stimulated calcium increases in HTC cells expressing Edg-3” value is reported as “did not inhibit”. For the same compound, the “inhibition of LPA-stimulated calcium increases in HTC cells expressing Edg-4” value at Edg-4 (setting [2]) is on record as “did not inhibit”. Further, at Edg-5 (setting [2]), the “inhibition of S1P-stimulated calcium increases in HTC cells expressing Edg-5” value was “did not inhibit”. For the same compound, the “inhibition of S1P-stimulated calcium increases in HTC cells expressing Edg-6” value on Edg-6 (setting [2]) is on record as “did not inhibit”. Also, the “inhibition of LPA-stimulated calcium increases in HTC cells expressing Edg-7” value on Edg-7 (setting [2]) is recorded as “did not inhibit”. For the same compound, the “inhibition of S1P-stimulated calcium increases in HTC cells expressing Edg-8” value on Edg-8 (setting [2]) is on record as “did not inhibit”. Moreover, the “effect on S1P-mediated desensitization of the chemotactic response to exodus-2” value in the assay on murine CD4 T cells (high concentrations of S1P, FIG. 12) is on record as “reverse S1P-mediated desensitization”. The “effect on S1P-mediated stimulation of the chemotactic response to exodus-2” value with murine CD4 T cells (moderate concentrations of S1P, FIG. 12) is on record as “inhibit S1P-mediated stimulation”. Also, the “reversal of S1P-mediated desensitization in dorsal air-pouch” value in [1] (co-treatment with S1P) is recorded as “can be reversed”.

In the case of `COc1cc(C(=O)c2cc(Cl)ccc2N)cc(OC)c1OC` [Compound 104, (2-Amino-5-chlorophenyl)-(3,4,5-trimethoxyphenyl)methanone], in the assay on human Edg-1 receptors (agonist (Table 4)), the “Fold Selectivity” value was more than 2.5 Fold. Moreover, the EC50 at Edg-2 (agonist), at Edg-3 (agonist), on Edg-4 (agonist), at Edg-5 (agonist), at Edg-6 (agonist) and at Edg-7 (agonist) was more than 25 µM each time. Further, at Edg-8 (agonist), the EC50 is more than 25 µM. Also, the “calcium response in HTC cells expressing Edg-2” value at Edg-2 (setting [3]) was “did not elicit a calcium response”. The “calcium response in HTC cells expressing Edg-3” value on Edg-3 (setting [3]) is given as “did not elicit a calcium response”. The “calcium response in HTC cells expressing Edg-4” value on Edg-4 (setting [3]) is on record as “did not elicit a calcium response”. The “calcium response in HTC cells expressing Edg-5” value at Edg-5 (setting [3]) is “did not elicit a calcium response”. The “calcium response in HTC cells expressing Edg-6” value on Edg-6 (setting [3]) is recorded as “did not elicit a calcium response”. Further, at Edg-7 (setting [3]), the “calcium response in HTC cells expressing Edg-7” value is listed as “did not elicit a calcium response”. At Edg-8 (setting [3]), the “calcium response in HTC cells expressing Edg-8” value is given as “did not elicit a calcium response”. In the assay on murine CD4 T cells (FIG. 11), the “concentration needed relative to S1P for same effect on chemotactic response to exodus-2” value is recorded as “higher concentrations of 104 than S1P are required”. In the assay on murine CD4 T cells (low and high concentrations desensitize, moderate stimulate, FIG. 11), the “effect on chemotaxis of murine CD4 T cells to exodus-2” value was “bell-shaped dose dependant response curve”. In [1] (CD4 T cells treated ex vivo, given intraperitoneally, S1P 1 μM), the “migration of treated lymphocytes to exodus-2 in dorsal air-pouch” value was “desensitizes the lymphocytes to attraction by exodus-2”.
